# Measurements published in patent US9884832B2 (priority 2011, dated 2018).
# Molecular target: AM2 S31 (wild-type serine at position 31 in the M2 protein), influenza virus A/Udorn/72 (Influenza A virus, UniProt P0DOF5)
# Experiment: cell-based
# Conditions: 100 uM; Xenopus oocytes; activity range class
# Chain of AM2 S31 (wild-type serine at position 31 in the M2 protein), influenza virus A/Udorn/72 (P0DOF5 whole entry, looked up): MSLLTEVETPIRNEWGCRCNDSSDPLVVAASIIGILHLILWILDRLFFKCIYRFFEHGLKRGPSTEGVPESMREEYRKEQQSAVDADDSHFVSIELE
row,Structure (SMILES),S31 OOcyte Inhibition at 100 uM (%)
1,"F[B-](F)(F)C[NH2+]C12CC3CC(CC(C3)C1)C2 [Example 204a, N-[(Trifluoro-4-boranyl)methyl]adamantan-1-aminium]",A ((A)=31-95%)

# Same assay, conditions: 100 uM; Xenopus oocytes; activity range class; read-out: S31 OOcyte Inhibition at 100 uM (%)
row,Structure (SMILES),inhibition at 100 µM [%]
1,"OC12CC3CC(C1)CC(NCc1cc4cc(Br)sc4s1)(C3)C2 [Example 195a, 3-[(5-Bromo-thieno[2,3-b]thiophen-2-ylmethyl)-amino]-adamantan-1-ol]",0 to 30
2,"Oc1ccc(CNC23CC4CC(CC(O)(C4)C2)C3)c(O)c1 [Example 196a, 4-[(3-Hydroxy-adamantan-1-ylamino)-methyl]-benzene-1,3-diol]",0 to 30
3,"C(#Cc1ccccc1)CNC12CC3CC(CC(C3)C1)C2 [Example 198a, N-(3-phenylprop-2-yn-1-yl)adamantan-1-amine]",0 to 30
4,"C(=C\c1ccccc1)/CNC12CC3CC(CC(C3)C1)C2 [Example 199a, N-cinnamyladamantan-1-amine]",0 to 30
5,"Clc1ccc(/C=C/CNC23CC4CC(CC(C4)C2)C3)cc1 [Example 200a, N-((E)-3-(4-chlorophenyl)allyl)adamantan-1-amine]",0 to 30
6,"COc1ccc2nc(CN(Cc3nc4ccc(OC)cc4[nH]3)C34CC5CC(CC(C5)C3)C4)[nH]c2c1 [Example 201a, Adamantan-1-yl-bis-(6-methoxy-1H-benzoimidazol-2-ylmethyl)-amine]",0 to 30
7,"Cc1ncc(CN(Cc2cnc(C)s2)C23CC4CC(CC(C4)C2)C3)s1 [Example 202a, N,N-bis((2-methylthiazol-5-yl)methyl)adamantan-1-amine]",0 to 30
8,"c1ccn2c(CNC34CC5CC(CC(C5)C3)C4)cnc2c1 [Example 203a, Adamantan-1-yl-imidazo[1,2-a]pyridin-3-ylmethyl-amine]",31 to 95
9,"c1csc(-c2ccc(CNC3C4CC5CC(C4)CC3C5)s2)c1 (stereo not shown) [Example 205a, N-([2,2′-bithiophen]-5-ylmethyl)adamantan-2-amine]",0 to 30
